Values quoted from earlier work in paper PMC11437099 (Nature Communications, 2024).
Read-outs that look alike come from different tables or passages of the source.

Key:
[1] = tested on: patients with type 2 diabetes
[2] = tested on: patients with type 2 diabetes; remark: listed apart in the source

Row | Substance | HbA1c change from baseline ([1]; 0.75 and 1.5 mg at 26 weeks) [%] | Participants achieving HbA1c <7.0% ([1]; 0.75 and 1.5 mg at 26 weeks) | Body weight change from baseline ([2]; 0.75 and 1.5 mg doses at 26 weeks) [kg] | Participants achieving HbA1c <7.0% ([1]; 1.2 and 1.8 mg at 52 weeks) | Body weight change (weight loss) ([2]; 1.2 and 1.8 mg at 52 weeks) [kg]
1 | dulaglutide: approved GLP-1 analog (Trulicity) | −1.25 to −1.46 | 63–72% | −1.0 to −1.5 | – | –
2 | liraglutide: approved GLP-1 analog (Victoza, Saxenda) (HAEGTFTSDVSSYLEGQAAKEFIAWLVRGRG; chains of the INN, looked up) | – | – | – | 43–51% | −2.05 to −2.45
